From ChEMBL document CHEMBL4017496 (J Med Chem, 2017)
Activity calls are given as the source filed them. No cut-off for these calls is given here.

Columns and labels:
[1] = biological target: T1, Peroxisome proliferator-activated receptor alpha (Homo sapiens) (UniProt Q07869); assay: Displacement of Fluormone-Pan-PPAR Green from human GST-tagged PPARalpha LBD at 20 uM by TR-FRET assay relative to control
T1 sequence (whole entry): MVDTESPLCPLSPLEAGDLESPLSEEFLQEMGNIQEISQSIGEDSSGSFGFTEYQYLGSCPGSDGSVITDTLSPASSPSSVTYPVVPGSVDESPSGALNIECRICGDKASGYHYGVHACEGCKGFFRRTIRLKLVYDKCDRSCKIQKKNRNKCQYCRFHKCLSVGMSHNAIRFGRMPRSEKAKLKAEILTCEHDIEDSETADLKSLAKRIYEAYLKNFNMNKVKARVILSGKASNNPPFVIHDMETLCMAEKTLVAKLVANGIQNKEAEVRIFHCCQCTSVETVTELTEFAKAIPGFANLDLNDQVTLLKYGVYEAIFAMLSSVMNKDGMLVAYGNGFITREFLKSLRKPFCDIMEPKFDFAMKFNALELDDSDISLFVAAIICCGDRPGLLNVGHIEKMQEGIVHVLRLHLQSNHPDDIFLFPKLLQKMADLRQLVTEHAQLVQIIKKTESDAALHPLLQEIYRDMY

[2] = biological target: T2, Peroxisome proliferator-activated receptor gamma (Homo sapiens) (UniProt P37231); assay: Displacement of Fluormone-Pan-PPAR Green from human GST-tagged PPARgamma LBD at 20 uM by TR-FRET assay relative to control
T2 sequence (whole entry): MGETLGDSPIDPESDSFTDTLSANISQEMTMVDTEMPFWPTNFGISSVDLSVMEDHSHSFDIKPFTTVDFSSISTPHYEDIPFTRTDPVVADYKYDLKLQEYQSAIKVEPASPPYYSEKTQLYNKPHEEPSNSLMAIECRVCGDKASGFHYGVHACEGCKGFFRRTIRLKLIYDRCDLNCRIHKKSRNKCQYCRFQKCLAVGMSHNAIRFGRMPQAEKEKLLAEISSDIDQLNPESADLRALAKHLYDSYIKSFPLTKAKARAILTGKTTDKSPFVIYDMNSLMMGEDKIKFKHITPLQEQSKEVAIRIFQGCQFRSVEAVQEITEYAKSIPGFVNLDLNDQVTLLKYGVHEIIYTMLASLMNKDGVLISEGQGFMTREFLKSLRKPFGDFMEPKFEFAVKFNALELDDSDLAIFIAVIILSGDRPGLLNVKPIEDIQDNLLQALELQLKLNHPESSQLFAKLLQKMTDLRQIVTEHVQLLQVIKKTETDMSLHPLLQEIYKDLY

[3] = Induction of adipogenesis in human bone marrow-derived mesenchymal stem cells assessed as adiponectin level at 20 uM measured on day 7 after 48 hrs by ELISA; format: functional, Mesenchymal stem cell
[4] = Induction of adipogenesis in human bone marrow-derived mesenchymal stem cells assessed as adiponectin level at 4 uM measured on day 7 after 48 hrs by ELISA; format: functional, Mesenchymal stem cell
[5] = tested on: Mesenchymal stem cell; assay: Induction of adipogenesis in human bone marrow-derived mesenchymal stem cells assessed as adiponectin level at 20 to 30 uM measured on day 7 after 48 hrs by ELISA; format: functional, cell-based
[6] = Induction of adipogenesis in mouse 7F2 cells transfected with human AR assessed as increase in […] at 1 to 10 uM after 7 to 12 days by staining based oil red O phase contrast microscopic method relative to control; format: functional
[7] = tested on: Mesenchymal stem cell; assay: Induction of adipogenesis in human bone marrow-derived mesenchymal stem cells assessed as increase in adiponectin production at 20.4 uM after 7 days in presence of IDX; format: functional, cell-based
[8] = biological target: T3, Adenosine receptor A3 (Homo sapiens, UniProt P0DMS8); assay: Displacement of [125I]I-AB-MECA from human A3 adenosine receptor expressed in CHO cell membranes after 60 mins by gamma counting method
T3 sequence (P0DMS8 whole entry): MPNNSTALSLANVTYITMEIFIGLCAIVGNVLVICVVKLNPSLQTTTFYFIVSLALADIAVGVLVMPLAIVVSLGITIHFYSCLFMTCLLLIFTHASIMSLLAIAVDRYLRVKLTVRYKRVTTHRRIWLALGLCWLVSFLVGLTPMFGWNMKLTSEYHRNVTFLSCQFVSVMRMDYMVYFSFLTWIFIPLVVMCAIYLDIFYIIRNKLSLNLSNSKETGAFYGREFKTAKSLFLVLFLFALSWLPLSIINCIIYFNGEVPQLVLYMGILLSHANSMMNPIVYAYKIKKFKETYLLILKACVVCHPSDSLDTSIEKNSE

[9] = tested on: Mus musculus; assay: Antidiabetic activity in STZ-induced diabetic C57BL/6J mouse assessed as insulin sensitivity by measuring reduction of serum glucose levels at 20 mg/kg,po for 5 days measured at 1 and 4 hrs post last dose; format: functional, organism-based
[10] = biological target: T4, Peroxisome proliferator-activated receptor delta (Homo sapiens, UniProt Q03181); assay: Displacement of Fluormone-Pan-PPAR Green from human GST-tagged PPARdelta LBD by TR-FRET assay
T4 sequence (Q03181 whole entry): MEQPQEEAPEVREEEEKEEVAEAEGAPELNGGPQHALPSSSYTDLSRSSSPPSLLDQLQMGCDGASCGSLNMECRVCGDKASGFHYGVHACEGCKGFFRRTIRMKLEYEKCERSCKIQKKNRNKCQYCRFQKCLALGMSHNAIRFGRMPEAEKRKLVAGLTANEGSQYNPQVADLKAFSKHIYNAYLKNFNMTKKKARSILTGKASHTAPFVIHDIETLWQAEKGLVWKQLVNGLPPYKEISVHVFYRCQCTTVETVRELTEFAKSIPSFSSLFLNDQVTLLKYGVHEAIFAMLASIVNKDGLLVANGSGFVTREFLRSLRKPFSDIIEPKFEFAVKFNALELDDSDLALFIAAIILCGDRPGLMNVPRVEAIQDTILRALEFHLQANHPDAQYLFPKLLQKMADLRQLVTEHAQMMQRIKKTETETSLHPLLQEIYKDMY

[11] = biological target: T2, Peroxisome proliferator-activated receptor gamma (Homo sapiens); assay: Transactivation of human PPARgamma expressed in African green monkey CV1 cells at 10 uM by luciferase reporter gene assay relative to control; format: cell-based
[12] = biological target: T5, Peroxisome proliferator-activated receptor delta (Homo sapiens) (UniProt Q03181); assay: Transactivation of human GST-tagged PPARdelta LBD assessed as fluorescein-C33 coactivator recruitment at 10 uM by TR-FRET assay
T5 sequence (whole entry): T4 sequence (Q03181 whole entry)

[13] = biological target: T5, Peroxisome proliferator-activated receptor delta (Homo sapiens); assay: Transrepression of human GST-tagged PPARdelta LBD assessed as induction of corepressor SMRT-ID2 peptide recruitment by TR-FRET assay
[14] = biological target: Peroxisome proliferator-activated receptor delta (Homo sapiens) (UniProt Q03181); assay: Antagonist activity at human GST-tagged PPARdelta LBD assessed as reduction in GW501516-induced fluorescein-C33 coactivator recruitment at 1 uM by TR-FRET assay relative to control
[15] = biological target: T6, Peroxisome proliferator-activated receptor gamma (Homo sapiens, UniProt P37231); assay: (§1) Displacement of Fluormone-Pan-PPAR Green from human GST-tagged PPARgamma LBD by TR-FRET assay
T6 sequence (P37231 whole entry): T2 sequence (whole entry)

[16] = biological target: T5, Peroxisome proliferator-activated receptor delta (Homo sapiens); assay: Displacement of Fluormone-Pan-PPAR Green from human GST-tagged PPARdelta LBD at 10 uM by TR-FRET assay relative to control
[17] = tested on: Mus musculus; assay: Antidiabetic activity in STZ-induced diabetic C57BL/6J mouse assessed as insulin sensitivity by measuring reduction of serum glucose levels administered po for 5 days measured at 1 and 4 hrs post last dose; format: functional, organism-based
[18] = biological target: T2, Peroxisome proliferator-activated receptor gamma (Homo sapiens); assay: as §1

`O[C@@H]1[C@H](O)CS[C@H]1n1cnc2c(NCc3cccc(Cl)c3)nc(Cl)nc21` showed an inhibition [1] of 4.5%, an inhibition [2] of 40.8% and an Activity [3] of 442 pg/mL. It also gave an Activity [4] of 196 pg/mL.
In the case of `CNC(=O)[C@@]12C[C@@H]1[C@@H](n1cnc3c(NCc4cccc(Cl)c4)nc(C#Cc4ccc(F)c(F)c4)nc31)[C@H](O)[C@@H]2O`, the Activity [5] is reported as “inactive”.
For `CCNC(=O)[C@H]1O[C@@H](n2cnc3c(N)ncnc32)[C@H](O)[C@@H]1O` [NECA], the Activity [6] was 20 - 30% and the Activity [7] was “inactive”.
With `O=C(NCC1CC1)[C@H]1S[C@@H](n2cnc3c(NCc4cccc(I)c4)ncnc32)[C@H](O)[C@@H]1O` the inhibition [1] was 16.4%, the Activity [3] was 490 pg/mL and the Activity [4] was 242 pg/mL.
In the case of `CNC(=O)[C@H]1S[C@@H](n2cnc3c(NCc4cccc(I)c4)ncnc32)[C@H](O)[C@@H]1O`, the Ki [8] is reported as 0.3 nM, the Activity [9] is reported as “Active” and the inhibition [1] is reported as 13.5%. The inhibition [2] was 46.9%, the Ki [10] was 2540 nM and the Activity [11] was 46.9%. The Activity [12] was “inactive”, the Activity [3] was 343 pg/mL and the Activity [4] was 126 pg/mL. For the same molecule, the Activity [13] was “Active” and the inhibition [14] was 22%.
Work on `O=C(NC1CC1)[C@H]1S[C@@H](n2cnc3c(NCc4cccc(I)c4)ncnc32)[C@H](O)[C@@H]1O` yielded an inhibition [1] of 37.6%, an inhibition [2] of 49.1% and a Ki [10] of 2980 nM. The Activity [3] was 249 pg/mL and the Activity [4] was 174 pg/mL.
Molecule `C[C@@H]1C[C@H]2[C@@H]3CCC4=CC(=O)C=C[C@]4(C)[C@@]3(F)[C@@H](O)C[C@]2(C)[C@@]1(O)C(=O)CO` [DEXAMETHASONE] has an Activity [3] of 100 pg/mL and an Activity [4] of 100 pg/mL.
Work on `O[C@@H]1[C@H](O)CS[C@H]1n1cnc2c(NCc3ccccc3Cl)nc(Cl)nc21` yielded an inhibition [1] of 19.2%, an inhibition [2] of 19.2% and a Ki [10] of 620 nM. For the same molecule, the Activity [3] was 268 pg/mL and the Activity [4] was 107 pg/mL.
With `CCNC(=O)[C@H]1O[C@@H](n2cnc3c(N)nc(NCCc4ccc(CCC(=O)O)cc4)nc32)[C@H](O)[C@@H]1O` the Activity [7] was “inactive”.
In the case of `CNC(=O)[C@H]1S[C@@H](n2cnc3c(NCc4cccc(I)c4)nc(Cl)nc32)[C@H](O)[C@@H]1O`, the inhibition [1] is reported as 37.8%, the Ki [15] is reported as 4600 nM and the Ki [10] is reported as 160 nM. It also gave an Activity [3] of 738 pg/mL and an Activity [4] of 131 pg/mL.
For `COc1ccc(Cl)cc1C(=O)NCCc1ccc(S(=O)(=O)NC(=O)NC2CCCCC2)cc1` [GLYBURIDE], the Activity [3] was 1000 pg/mL, the Activity [4] was 838 pg/mL and the inhibition [16] was 21.5%.
In the case of `OC[C@H]1O[C@@H](n2cnc3c(NC4CCCC4)nc(Cl)nc32)[C@H](O)[C@@H]1O`, the Activity [6] is reported as 20 - 30% and the Activity [7] is reported as “inactive”.
In the case of `CCCn1cc2c(nc(NC(=O)Nc3ccc(OC)cc3)n3nc(-c4ccco4)nc23)n1`, the Activity [5] is reported as “inactive”.
For `O[C@@H]1[C@H](O)CS[C@H]1n1cnc2c(NCc3cccc(I)c3)ncnc21`, the Ki [8] was 1.5 nM.
For `CCNC(=O)[C@H]1S[C@@H](n2cnc3c(NCc4cccc(I)c4)ncnc32)[C@H](O)[C@@H]1O`, the inhibition [1] was 29.3%, the inhibition [2] was 37.1% and the Ki [10] was 3150 nM. The Activity [3] was 242 pg/mL and the Activity [4] was 118 pg/mL.
For `O[C@@H]1[C@H](O)CS[C@H]1n1cnc2c(NCc3cccc(I)c3)nc(Cl)nc21`, the Activity [17] was “Dose-dependent effect”, the Activity [9] was “Active” and the inhibition [18] was “Dose-dependent effect”. For the same molecule, the Ki [10] was 4.83 nM, the Activity [11] was 54.3% and the Activity [12] was “inactive”. The Activity [3] was 857 pg/mL, the Activity [4] was 192 pg/mL and the Activity [13] was “Dose-dependent effect”. It also gave an inhibition [14] of 57%.
Molecule `O=C(NC1CCC1)[C@H]1S[C@@H](n2cnc3c(NCc4cccc(I)c4)ncnc32)[C@H](O)[C@@H]1O` has an inhibition [1] of 11.7%, a Ki [15] of 170 nM and a Ki [10] of 2610 nM. For the same molecule, the Activity [3] was 633 pg/mL and the Activity [4] was 323 pg/mL.
Work on `CC(C)Cn1c(=O)n(C)c(=O)c2nc[nH]c21` [ISOBUTYLMETHYLXANTHINE] yielded an Activity [3] of 100 pg/mL and an Activity [4] of 100 pg/mL.
Work on `Cc1c(C)c2c(c(C)c1O)CCC(C)(COc1ccc(CC3SC(=O)NC3=O)cc1)O2` (centres undefined) yielded an inhibition [16] of 23.4%.
